# Reference: US8586632B2, “Use of the irritating principal oleocanthal in olive oil, as well as structurally and functionally similar compounds” (Monell Chemical Senses Center, priority 2007, dated 2013)
# Experiments:
# [1] = test system: cultured rat trigeminal neurons; assay: Intracellular calcium level in cultured rat trigeminal neurons (ratiometric Fura2 imaging); assay type: cell-based; set-up: key to TG Neuron Activation: The highest scale (+++) was assigned to the analogs that had approximately the same magnitude of response and excited the same number of neurons as oleocanthal; ++ responses were assigned to analogs that elicited intermediate responses to an intermediated number of cells; The + responses were weak but detectable and were observed in very few cells; No detectable response is indicated by 0; conditions: for intracellular calcium response in trigeminal neurons (in words): cultured rat trigeminal neurons; for TG Neuron Activation: single concentration 5 micromolar, response relative to oleocanthal; for number of trigeminal neurons responding, as % of the response to oleocanthal: 5 micromolar oleocanthal = 100%
# Protocol: Activity of synthetic oleocanthal analogs was assessed by measurement of the intracellular calcium level in cultured rat trigeminal neurons. Flavor or taste perception is made up of the sensory experience of three chemical senses: taste, smell, and chemical-induced irritation or pain. This third component is mainly determined by the impact of chemical stimuli that are transmitted to the brain via the trigeminal nerve.
# Trigeminal ganglia were harvested from 1-3 day old Sprague-Dawley rat pups. Neurons were dissociated in Hanks Buffered Saline Solution (HBSS) with trypsin (0.0625%) for 15 minutes, collagenase (1 mg/ml) and DNase (0.1 mg/ml) for 45 minutes, and then were separated from myelin/debris using a 15/30/60% Percoll gradient. The neurons were plated on poly-1-lysine/laminin-coated coverslips in modified neurobasal medium supplemented with B27, 100 ng/ml Nerve Growth Factor (NGF) and kept at 37° C., 5% CO2. […] Intracellular calcium was measured ratiometrically using excitation at 340 and 380 nm and emission at 510 nm. Experiments were performed at 31-32° C. Neurons were stimulated by compounds in Ringers solution (pH=7.34) that flowed over the neurons for 15 sec.
# Synthetic (−)oleocanthal and related analogs were dissolved in absolute ethanol and then added to Ringer's solution adjusted at pH=7.34 with a final ethanol concentration of less than 0.1%. The octanol-water partition coefficient (Log P), expressing compound lipophilicity, was calculated based on chemical structure with the Interactive Analysis Log P predictor website. In general, the higher the log P number, the greater the lipophilicity, and the greater the tendency of the compound to partition into the lipid phase of the cell membranes.
# Oleocanthal activates rat trigeminal neurons; 5 microM of the olive oil irritant elicits a robust intracellular calcium increase in about 25 to about 35% of cultured rat trigeminal neurons (FIG. 6). Therefore, to assess the irritation potency of oleocanthal analogs and in order to avoid human consumption of unnatural compounds, activity was determined by measurement of the intracellular calcium level in cultured rat trigeminal neurons. […] Thus, both aldehyde groups, as well as unsaturation, are required to maintain full activity. […] Analog 11 is of particular interest. Like oleocanthal, analog 11 (or 4-DHPEA-EDA) is a secoiridoid derivative naturally present in extra virgin olive oil. Oleocanthal and 4-DHPEA-EDA formation occurs during olive oil production by enzymatic and chemical degradation of their respective precursors ligstroside and oleuropein, two glucosylated secoiridoids abundantly synthesized in unripe olives (FIG. 9). Oleocanthal and 4-DHPEA-EDA are structurally very similar—the sole difference being a second phenolic hydroxyl group in 4-DHPEA-EDA. […] For the experiment illustrated in FIG. 8, analog 13 (5, 10, 20 and 50 micomolar) was applied on a separate coverslip containing trigeminal neurons and activation was determined. This was followed by application of 5 micromolar oleocanthal to the same four coverslips. For each coverslip, the number of trigeminal neurons responding to oleocanthal was determined and defined as 100%. The number of trigeminal neurons responding to analog 13 corresponded to approximately 6% (5 micromolar analog 13), 25% (10 micromolar analog 13), 45% (20 micromolar analog 13) and 96% (50 micromolar analog 13) of the response to oleocanthal. For each coverslip, 18-20 trigeminal neurons were sensitive to oleocanthal. […] Analog 13 is very close in structure to oleocanthal (Table 2), lacking only a single carbon. […] While not wishing to be bound by any one theory, it is believed that the shorter chain of analog 13 pulls the rigid ring forward creating a steric obstruction to efficacious binding with the receptor.
# [2] = test system: oral irritation; conditions: reported, Anke et al. 1991; cited from earlier work
# [3] = test system: throat; assay: Throat irritation sensory test of synthetic oleocanthal in corn oil (two-alternative forced-choice); assay type: in vivo, human; conditions: for correct trials, 2AFC throat irritation: ten subjects
# Protocol: Testing was double-blind and each was exposed to three sets of two samples, one of which was added synthesized oleocanthal and the other served as the blank control. The task was to indicated which of the pair was more irritating. […] Importantly, the effect was dose dependent (FIG. 2 open triangles, dashed line). Ten subjects were tested with non-irritating commercial corn oils presented neat and mixed with either synthesized (−)-oleocanthal or the bitter agent sucrose octaacetate (SOA) (Sigma-Aldrich). […] (−)-Oleocanthal was tested at the highest concentration identified in the ten rated oils, 200 μg/ml, and at one half and whole log steps more dilute 63.25 and 20 μg/ml. SOA was added to the corn oil (4×10^−4, 1×10^−4, 5×10^−5 M) to intensity match the irritation of the three levels of (−)-oleocanthal. Subjects participated in two-alternative forced-choice (2AFC) trials (four trials at every concentration for each subject) and in intensity ratings sessions (four ratings per each oil). For the 2AFC trials subjects were presented with two 3.0 ml corn oil samples with matching intensities of SOA and (−)-oleocanthal in ascending order, and were required to sample oils as described above. While blind to stimulus position, subjects were asked two questions on each trial, “Which of the two oils was more irritating in the throat?” and “Which one was more bitter?” At the 20 μg/ml & 5×10^−5 M level most subjects reported on some trials that the same oil was both the more irritating and the more bitter of the two. […] Subjects performed at chance when selecting among two unadulterated corn oils, when the correct choice was randomly assigned prior to testing. […] The other two concentrations were correct 39/40 and 40/40 trials. For the intensity rating trials subjects were presented with all eight oils in ascending order, counterbalanced for stimulus order and asked to rate the throat irritation and bitterness of every oil on a general labeled magnitude scale.
Compound,intracellular calcium response in trigeminal neurons (in words) [1],TG Neuron Activation [1],further results
C/C=C(/CO)[C@@H](CCO)CC(=O)OCCc1ccc(O)cc1 [Analog 10],did not elicit intracellular calcium increase,0,
C/C=C(/C=O)[C@@H](CC=O)CC(=O)OCCc1ccc(F)cc1 [Analog 2],,+++,
C/C=C1\[C@H](CC(=O)OCCc2ccc(O)cc2)C[C@@H](O)[C@H]1O [Analog 5],did not elicit intracellular calcium increase,0,
C/C=C(/C=O)[C@@H](CC=O)CC(=O)OCCc1ccccc1O [Analog 3],,+++,
C/C=C(/C=O)[C@@H](CC=O)CC(=O)OCCc1ccccc1 [Analog 1],,+++,
"C/C=C(/C=O)[C@@H](CC=O)CC(=O)OCCc1ccc(O)c(O)c1 [Analog 11, 4-DHPEA-EDA]",,+++,oral irritation (in words) [2]: very little oral irritation
"C/C=C(/C=O)[C@@H](CC=O)CC(=O)OCCc1ccc(O)cc1 [Oleocanthal (−), 2-(4-hydroxyphenyl)ethyl, 4-formyl-3-(2-oxoethyl)-4-hexenoic acid ester]",,+++,"correct trials, 2AFC throat irritation ([3]; 20 μg/ml in corn oil vs intensity-matched SOA): 24 out of 40; correct trials, 2AFC throat irritation ([3]; 63.25 μg/ml in corn oil vs intensity-matched SOA): 39/40; correct trials, 2AFC throat irritation ([3]; 200 μg/ml in corn oil vs intensity-matched SOA): 40/40; throat irritation (in words) ([3]; synthetic compound in corn oil): identical to oleocanthal isolated from premium olive oil; correct identification of the more irritating sample (2AFC) ([3]; three evaluators, three presentations each, corn oil, approx. twice the concentration in Falconaro olive oil, vs blank, p<0.01): 9 of 9; concentration near detection threshold levels in corn oil ([3]; throat irritation, 2AFC): ~20 µg/mL"
C/C=C(/C=O)[C@@H](CC=O)CC(=O)OCc1ccc(O)cc1 [Analog 13],small responses,+,"number of trigeminal neurons responding, as % of the response to oleocanthal ([1]; 5 micromolar analog 13): approximately 6%; number of trigeminal neurons responding, as % of the response to oleocanthal ([1]; 10 micromolar analog 13): about 25%; number of trigeminal neurons responding, as % of the response to oleocanthal ([1]; 20 micromolar analog 13): ~45%; number of trigeminal neurons responding, as % of the response to oleocanthal ([1]; 50 micromolar analog 13): ~96%; multiple of concentration needed to reach the potency of oleocanthal ([1]; trigeminal neuron stimulation, FIG. 8): approximately 10 times"
C/C=C(/C=O)[C@@H](CCO)CC(=O)OCCc1ccc(O)cc1 [Analog 9],did not elicit intracellular calcium increase,+,
C/C=C(/C=O)[C@@H](CC=O)CC(=O)OC [Analog 6],,++,
C/C=C(/C=O)[C@@H](CC=O)CC(=O)OCCCc1ccc(O)cc1 [Analog 8],,+++,
C/C=C(/C=O)[C@@H](CC=O)CC(=O)OCCc1cccc(O)c1 [Analog 4],,+++,
CC[C@@H](C=O)[C@@H](CC=O)CC(=O)OCCc1ccc(O)cc1 [Analog 12],did not elicit intracellular calcium increase,0,
C/C=C(/C=O)[C@@H](CC=O)CC(=O)OCCCCC [Analog 7],,+++,
